Measurements: US8513232B2, “Substituted spirocyclic piperidine derivatives as histamine-3 (H3) receptor ligands” (Cephalon, Inc., priority 2008, dated 2013)

What was measured:
human H3 receptor = molecular target: T1, human H3 receptor (Homo sapiens, UniProt Q9Y5N1); experiment: Human H3 radioligand binding ([3H]-N-alpha-methylhistamine, SPA); details: human H3 binding, Table D; read-out: Human H3 Ki
T1 construct: expressed in transfected cells
Summary of the method: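 Compounds (0.01 nM-30 μM) competed with approximately 1 nM [3H]-N-alpha-methylhistamine for human H3 receptor in membranes of stably transfected CHO cells, 10 μg protein per well, in Tris-HCl pH 7.4/MgCl2/BSA buffer for 4 h at room temperature. Bound radioligand measured by scintillation proximity; 10 μM clobenpropit gave non-specific binding.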

[1] = molecular target: T2, rat histamine H3 receptor (Rattus norvegicus, UniProt Q9QYN8); experiment: Rat H3 radioligand binding ([3H]-N-alpha-methylhistamine, SPA); details: rat H3 binding, Table D; read-out: Rat H3 Ki
T2 construct: encoding the entire 445-amino-acid rat histamine H3 receptor; expressed in transfected cells; membrane preparation
Summary of the method: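 SPA-bead binding assay using [3H]-N-alpha-methylhistamine (approximately 1 nM final) with test compounds from 0.01 nM to 30 μM. Rat H3 receptor membranes came from stably transfected CHO-A3 cells; incubation ran 4 h at room temperature, in the dark, in Tris pH 7.4 buffer with MgCl2 and BSA. Clobenpropit (10 μM) gave non-specific binding.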

T1 sequence (Q9Y5N1 whole entry): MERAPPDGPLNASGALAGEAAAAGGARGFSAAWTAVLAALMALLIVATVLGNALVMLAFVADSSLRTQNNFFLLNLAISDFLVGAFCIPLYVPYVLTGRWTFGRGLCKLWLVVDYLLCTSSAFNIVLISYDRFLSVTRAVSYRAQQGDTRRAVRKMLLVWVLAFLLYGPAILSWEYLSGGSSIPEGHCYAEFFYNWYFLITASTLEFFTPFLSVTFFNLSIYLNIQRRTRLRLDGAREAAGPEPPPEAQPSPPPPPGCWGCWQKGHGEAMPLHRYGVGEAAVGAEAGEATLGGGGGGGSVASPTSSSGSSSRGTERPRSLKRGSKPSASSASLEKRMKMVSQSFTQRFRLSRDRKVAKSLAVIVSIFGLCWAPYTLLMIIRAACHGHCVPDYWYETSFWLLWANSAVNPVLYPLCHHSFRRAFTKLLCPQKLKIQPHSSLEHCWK
T2 sequence (Q9QYN8 whole entry): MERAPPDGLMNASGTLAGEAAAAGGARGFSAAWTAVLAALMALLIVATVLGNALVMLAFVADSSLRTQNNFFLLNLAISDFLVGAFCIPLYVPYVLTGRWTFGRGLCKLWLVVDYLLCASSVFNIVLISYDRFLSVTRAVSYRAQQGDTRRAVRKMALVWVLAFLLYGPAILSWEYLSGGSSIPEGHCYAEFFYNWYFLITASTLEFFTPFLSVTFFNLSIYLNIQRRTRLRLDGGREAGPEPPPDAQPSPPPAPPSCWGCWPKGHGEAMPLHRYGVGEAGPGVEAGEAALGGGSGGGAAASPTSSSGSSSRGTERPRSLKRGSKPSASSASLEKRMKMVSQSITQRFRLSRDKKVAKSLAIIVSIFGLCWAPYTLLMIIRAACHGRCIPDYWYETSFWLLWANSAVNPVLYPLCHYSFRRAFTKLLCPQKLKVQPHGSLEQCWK

Row | SMILES | Ki (human H3 receptor) | melting point | Ki [1]
1 | CCOC(=O)c1cc(=O)n(C)cc1-c1ccc2c(c1)COC1(CCN(C3CCC3)CC1)O2 [Example 762] | < 200 nM | 71 to 74 °C | < 200 nM
2 | COc1ncc(-c2ccc3c(c2)COC2(CCN(C4CCC4)CC2)O3)cc1CO [Example 768] | < 200 nM | 150 to 151 °C | < 200 nM
3 | COc1cc(C)c(-c2ccc3c(c2)CCC2(CCN(C4CCC4)CC2)O3)cn1 [Example 769] | < 200 nM | 127 to 128 °C | < 200 nM
4 | Cc1cc(=O)[nH]cc1-c1ccc2c(c1)CCC1(CCN(C3CCC3)CC1)O2 [Example 771] | < 200 nM | 252 to 254 °C | < 200 nM
5 | Cc1c(-c2ccc3c(c2)COC2(CCN(C4CCC4)CC2)O3)cn(C(C)C)c(=O)c1C [Example 776] | < 200 nM | 89 to 92 °C | < 200 nM
6 | CC(C)Oc1cc(-c2ccc3c(c2)COC2(CCN(C4CCC4)CC2)O3)c(Cl)cn1 [Example 780] | < 200 nM | 131 to 132 °C | < 200 nM
7 | FC(F)(F)COc1cc(-c2ccc3c(c2)COC2(CCN(C4CCC4)CC2)O3)c(Cl)cn1 [Example 782] | < 200 nM | 119 to 121 °C | < 200 nM
8 | Cc1c(-c2ccc3c(c2)COC2(CCN(C4CCC4)CC2)O3)cn(CC(F)(F)F)c(=O)c1C [Example 783] | < 200 nM | 96 to 98 °C | < 200 nM
9 | Cn1cc(-c2ccc3c(c2)COC2(CCN(C4CCC4)CC2)O3)c2ccccc2c1=O [Example 786] | < 200 nM | 207 to 209 °C | < 200 nM
10 | Cc1nc2ccccc2c(=O)n1-c1ccc2c(c1)COC1(CCN(C3CCC3)CC1)O2 [Example 787] | < 200 nM | 206 to 207 °C | < 200 nM
11 | CCc1nc(OC)ccc1-c1ccc2c(c1)COC1(CCN(C3CCC3)CC1)O2 [Example 789] | < 200 nM | 59 to 61 °C | < 200 nM
12 | Cc1nc2cccc(C(F)(F)F)c2c(=O)n1-c1ccc2c(c1)COC1(CCN(C3CCC3)CC1)O2 [Example 791] | < 200 nM | 221 to 222 °C | < 200 nM
13 | Cc1ccc2nc(C)n(-c3ccc4c(c3)COC3(CCN(C5CCC5)CC3)O4)c(=O)c2c1 [Example 792] | < 200 nM | 149 to 152 °C | < 200 nM
14 | CCS(=O)(=O)c1c[nH]c(=O)cc1-c1ccc2c(c1)COC1(CCN(C3CCC3)CC1)O2 [Example 793] | < 200 nM | 190 to 192 °C | < 200 nM
15 | COc1ccc2nc(C)n(-c3ccc4c(c3)COC3(CCN(C5CCC5)CC3)O4)c(=O)c2c1 [Example 794] | < 200 nM | 155 to 157 °C | < 200 nM
16 | COc1cc(C)c(-c2ccc3c(c2)COC2(CCN(C4CCC4)CC2)O3)c(C)n1 [Example 795] | < 200 nM | 149.8 to 150.4 °C | < 200 nM
17 | COc1nc(C)c(-c2ccc3c(c2)COC2(CCN(C4CCC4)CC2)O3)cc1C#N [Example 796] | < 200 nM | 215 to 217 °C | < 200 nM
18 | COc1ccc(-c2ccc3c(c2)CCC2(CCN(C4CCC4)CC2)O3)c(C)n1 [Example 797] | < 200 nM | 72 to 73 °C | < 200 nM
19 | COCc1cc(=O)[nH]cc1-c1ccc2c(c1)COC1(CCN(C3CCC3)CC1)O2 [Example 798] | < 200 nM | 217 to 219 °C | < 200 nM
20 | Cc1c(-c2ccc3c(c2)COC2(CCN(C4CCC4)CC2)O3)c[nH]c(=O)c1C [Example 799] | < 200 nM | 178 to 180 °C | < 200 nM
21 | COc1ncc(-c2ccc3c(c2)COC2(CCN(C4CCC4)CC2)O3)c(C)c1C [Example 800] | < 200 nM | 233 to 235 °C | < 200 nM
22 | Cc1nc2cccc(Cl)c2c(=O)n1-c1ccc2c(c1)COC1(CCN(C3CCC3)CC1)O2 [Example 801] | < 200 nM | 105 to 107 °C | < 200 nM
23 | CCc1cc(OC)ncc1-c1ccc2c(c1)COC1(CCN(C3CCC3)CC1)O2 [Example 802] | < 200 nM | 156 to 160 °C | < 200 nM
24 | COCc1cc(-c2ccc3c(c2)COC2(CCN(C4CCC4)CC2)O3)cnc1OC [Example 804] | < 200 nM | 257 °C | < 200 nM
25 | Cc1cc(=O)[nH]c(C)c1-c1ccc2c(c1)COC1(CCN(C3CCC3)CC1)O2 [Example 806] | < 200 nM | 247 to 249 °C | < 200 nM
26 | CCc1cc(-c2ccc3c(c2)COC2(CCN(C4CCC4)CC2)O3)c(C)[nH]c1=O [Example 808] | < 200 nM | 211 to 213 °C | < 200 nM

The next lines start with the values.

Row | Ki (human H3 receptor) | melting point | Ki [1] | SMILES
27 | < 200 nM | 65 to 68 °C | < 200 nM | Cc1cc(=O)n(C(C)C)cc1-c1ccc2c(c1)COC1(CCN(C3CCC3)CC1)O2 [Example 759]
28 | < 200 nM | 59 to 61 °C | < 200 nM | Cc1c(-c2ccc3c(c2)COC2(CCN(C4CCC4)CC2)O3)ccc(=O)n1C [Example 760]
29 | < 200 nM | 70 to 72 °C | < 200 nM | COc1cc(-c2ccc3c(c2)COC2(CCN(C4CCC4)CC2)O3)cn(C)c1=O [Example 761]
30 | < 200 nM | 143 to 145 °C | < 200 nM | Cc1c(-c2ccc3c(c2)COC2(CCN(C4CCC4)CC2)O3)ccc(=O)n1C(F)F [Example 763]
31 | < 200 nM | 119 to 121 °C | < 200 nM | Cc1cc(=O)n(C(F)F)cc1-c1ccc2c(c1)COC1(CCN(C3CCC3)CC1)O2 [Example 764]
32 | < 200 nM | 85 to 88 °C | < 200 nM | CCSc1c[nH]c(=O)cc1-c1ccc2c(c1)COC1(CCN(C3CCC3)CC1)O2 [Example 765]
33 | < 200 nM | 254 to 255 °C | < 200 nM | O=c1cc(-c2ccc3c(c2)COC2(CCN(C4CCC4)CC2)O3)c(F)c[nH]1 [Example 766]
34 | < 200 nM | 230 to 231 °C | < 200 nM | CCc1[nH]c(=O)ccc1-c1ccc2c(c1)COC1(CCN(C3CCC3)CC1)O2 [Example 767]
35 | < 200 nM | 120 to 123 °C | < 200 nM | Cn1cc(-c2ccc3c(c2)COC2(CCN(C4CCC4)CC2)O3)c(CO)cc1=O [Example 770]
36 | < 200 nM | 196 to 198 °C | < 200 nM | O=c1cc(-c2ccc3c(c2)COC2(CCN(C4CCC4)CC2)O3)ccn1CC(F)(F)F [Example 772]
37 | < 200 nM | 228 to 230 °C | < 200 nM | O=c1[nH]cc(-c2ccc3c(c2)COC2(CCN(C4CCC4)CC2)O3)cc1CO [Example 773]
38 | < 200 nM | 205 to 207 °C | < 200 nM | CCSCc1cc(-c2ccc3c(c2)COC2(CCN(C4CCC4)CC2)O3)c[nH]c1=O [Example 774]
39 | < 200 nM | 175 to 177 °C | < 200 nM | O=c1cc(-c2ccc3c(c2)COC2(CCN(C4CCC4)CC2)O3)ccn1C(F)F [Example 775]
40 | < 200 nM | 202 to 204 °C | < 200 nM | O=c1[nH]cc(-c2ccc3c(c2)COC2(CCN(C4CCC4)CC2)O3)c2ccccc12 [Example 777]
41 | < 200 nM | 156 to 158 °C | < 200 nM | CCn1cc(-c2ccc3c(c2)COC2(CCN(C4CCC4)CC2)O3)ccc1=O [Example 778]
42 | < 200 nM | 179 to 181 °C | < 200 nM | CC(C)n1cc(Cl)c(-c2ccc3c(c2)COC2(CCN(C4CCC4)CC2)O3)cc1=O [Example 779]
43 | < 200 nM | 194 to 197 °C | < 200 nM | O=c1cc(-c2ccc3c(c2)COC2(CCN(C4CCC4)CC2)O3)c(Cl)cn1CC(F)(F)F [Example 781]
44 | < 200 nM | 71.2 to 73.6 °C | < 200 nM | O=c1c(Cl)c(-c2ccc3c(c2)COC2(CCN(C4CCC4)CC2)O3)ccn1CC(F)(F)F [Example 784]
45 | < 200 nM | 91 to 93 °C | < 200 nM | Cc1cscc1-c1ccc2c(c1)COC1(CCN(C3CCC3)CC1)O2 [Example 785]
46 | < 200 nM | 61 to 63 °C | < 200 nM | COc1ncc(-c2ccc3c(c2)COC2(CCN(C4CCC4)CC2)O3)cc1O [Example 788]
47 | < 200 nM | 107 to 109 °C | < 200 nM | CCc1cc(=O)[nH]cc1-c1ccc2c(c1)COC1(CCN(C3CCC3)CC1)O2 [Example 803]
48 | < 200 nM | 212 to 214 °C | < 200 nM | COCc1cc(-c2ccc3c(c2)COC2(CCN(C4CCC4)CC2)O3)c[nH]c1=O [Example 805]
